Patent publication US20040037806A1, “Aldosterone blocker therapy to prevent or treat inflammation-related disorders” (Pharmacia Corporation, priority 2002, published 2004)

Assays:
Assay type in all cases: in vivo, rat
[1] = Assay A: angiotensin II infusion model, urinary Na+/K+ ratio (natriuresis index); conditions: Wistar rats, 1% NaCl, angiotensin II 25 ng/min sc; eplerenone 100 mpk
From the text: Electrolyte excretion. The ratio between daily urinary Na^+ excretion and urinary K^+ excretion (U Na^+/K^+ ratio) was used as an index for natriuresis. Urinary Na^+/K^+ ratio was similar in all groups before the start of the treatments, and increased similarly in all animals upon initiation of the high salt diet.

[2] = Assay A: angiotensin II infusion model, systolic blood pressure by tail-cuff; conditions: Wistar rats, 1% NaCl to drink, angiotensin II 25 ng/min sc, 4 weeks; eplerenone 100 mpk; aldosterone given to adrenalectomized, dexamethasone-treated rats
osteopontin = experiment: Assay A: osteopontin immunostaining of hearts; conditions: angiotensin II-infused, saline-drinking Wistar rats; eplerenone 100 mpk; aldosterone replacement in adrenalectomized rats
[3] = Assay A: angiotensin II infusion model, heart histology (hematoxylin&eosin), vascular inflammation and myocardial injury; conditions: Wistar rats, 1% NaCl, angiotensin II 25 ng/min sc, 4 weeks, 10/group; eplerenone 100 mpk; aldosterone replacement in adrenalectomized rats
From the text: Assay A: In Vivo Angiotensin II Infusion Model
Male Wistar rats (n=50, 10/group; BW=200 g)
Sacrifice by exanguination after 4 weeks. Blood was be collected in dry tubes for determination of serum electrolytes and in EDTA-containing tubes for measurement of aldosterone and corticosterone levels
Hearts were stained with hematoxylin&eosin and have been analyzed for determination of morphologic abnormalities (i.e. necrosis, vascular injury).

cyclooxygenase-2 (COX-2) = experiment: Assay A: cyclooxygenase-2 immunostaining of hearts; conditions: angiotensin II-infused, saline-drinking Wistar rats, eplerenone 100 mpk, aldosterone replacement in adrenalectomized rats

## angiotensin II (DRVYIHPF; Angiotensin-2; UniProt P01019 25-32, looked up) [vasoconstrictive octapeptide infused sc via alzet minipump to induce hypertension]
[1]
  Urinary Na+/K+ ratio (index for natriuresis): significantly increased
[2]
  Systolic blood pressure: increased
osteopontin
  Osteopontin expression in the heart (immunostaining): presence of osteopontin in the media of coronary arteries
[3]
  Vascular inflammatory lesions in the coronary arteries / heart: Seven out of the ten
cyclooxygenase-2 (COX-2)
  Cyclooxygenase-2 expression in the heart (immunostaining): presence of this enzyme in areas of inflammation around the arteries
cyclooxygenase-2 (COX-2); listed as Ang II
  Cyclooxygenase-2 expression in the heart (immunostaining): induction of COX-2 expression
